Source: PubChem BioAssay (NCI)
Values joined by “and” are separate entries in the source; they are usually repeats but may differ in a detail not shown here. Equal entries are not always repeated.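 Step 1: Grow cells in 96-well plates. Step 2: Expose to compound for 48 hours at 5 concentrations. Step 3: Interpolate endpoints linearly; if unreached, use highest concentration. GI50: concentration for 50% inhibition of growth. TGI: total growth inhibition.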

test system: HCT-116 colon; test: NCI-60 cell line screen, 48 h

Compound | GI50 [nM] | TGI [nM]
COc1cc(/C=N\NC(=O)CN2CCN(c3cc4c(cc3F)c(=O)c(C(=O)N/N=C/c3cc(OC)c(OC)c(OC)c3)cn4C3CC3)CC2)cc(OC)c1OC | 219 | 500

test system: 786-0 renal; test: NCI-60 cell line screen, 48 h

Compound | TGI | GI50
COc1ccc(CC2c3cc4c(cc3CCN2C)OCO4)c(C=O)c1OC (stereo not given) | > 100 µM | –
CN1CCCCC1CCN1c2ccccc2Sc2ccc(Cl)cc21 (stereo not given) | 14.5 µM | 3.85 µM
C=C(C)C(OC)C(O)CC1(C)CC(O)CC(C)(C2CCC3OC(C4(C)CCC(Br)C(C)(C)O4)CCC3(C)O2)O1 (stereo not given) | 33.6 µM | 17.8 µM
O=C(Nc1nc2ccc([N+](=O)[O-])cc2s1)C(=O)C(C1OC(=O)c2ccccc21)[N+](=O)[O-] (stereo not given) | > 100 µM | –
Cc1cc(-c2nc(C(=O)Nc3cc4oc(N5CCOCC5)nc4nc3N3CC[C@@H](O)C3)co2)ccn1 | > 100 µM | 68.7 µM
COc1cc2c(cc1OCCCCN1CCN(CC(=O)Nc3ccc(Cl)cc3C(=O)c3ccccc3Cl)CC1)N=CC1CCCN1C2=O (stereo not given) | 0.456 µM | 0.205 µM
O=C(CCc1nc(=S)[nH][nH]1)Nc1ccc(Cl)c(Cl)c1 | > 100 µM | –
COC(=O)C1(C(C)C)CCc2c(OC)ccc(OC)c2C1=O (stereo not given) | > 100 µM | –
Cc1ccc(Cl)c2c(N=Nc3ccccc3[N+](=O)[O-])c(O)[nH]c12 | > 100 µM | –
FC(F)(F)c1cccc(Nc2nc(-c3ccccc3)nc3ncccc23)c1 | 6.51 µM | 2.51 µM
O=C(Nc1ccccc1)c1c(O)[nH]c(=S)[nH]c1=O | 92.1 µM | –
OC1CSSC1Cn1cnc2c(Nc3ccc(OCc4cccc(F)c4)c(Cl)c3)ncnc21 (stereo not given) | 11.9 µM | 5.67 µM
C=CCOc1ccc2c(C)cc(=O)oc2c1C | > 100 µM | –
Nc1c(C(=O)c2cccc(CCS(N)(=O)=O)c2)cnn1-c1ccc(F)cc1 | > 25 µM | > 25 µM
COC(=O)c1ccccc1NC(=O)C(=O)Cc1nc2c3c(ccc2[nH]c1=O)C(=O)c1ccccc1C3=O | 74.2 µM | –
COc1cc2cc(OC)c3cc4c(cc3c2c(OC)c1OC)OCO4 | > 90.4 µM | –

Compound | TGI | GI50
O=C(CC(=O)c1cccc2ccccc12)C(=O)Nc1ccc(Cl)cc1 | > 100 µM | –
OCc1cc2ccccc2c2c3c(ccc12)OCO3 | 203 µM | 42.3 µM
CCCCCCCCCCCCCC(=O)OC(/C=C/C(C)C)C(O)C(O)C(OC)C(=O)NC1CCCCN(C)C1=O (stereo not given) | 5.94 µM and > 49 µM | –
CC1(C(=O)O)CCC[C@@]2(C)C1CC[C@@]1(C)c3cocc3CCC21 (stereo not given in full) | > 100 µM | –
C[C@@H](Oc1cc(-n2cnc3ccc(CN4CCN(C)CC4)cc32)sc1C(N)=O)c1ccccc1C(F)(F)F | 2.04 µM and > 7.11 µM | 0.0439 µM and 0.0854 µM
CCN(CC)CCSc1c2ccccc2nc2cc(NCC(=O)Nc3ccccc3-c3ccccc3NC(=O)CNc3ccc4c(SCCN(CC)CC)c5ccccc5nc4c3)ccc12 | > 100 µM | –
Cc1ccsc1C(=S)Nc1ccc(Cl)c(/C=N/OC(C)(C)C)c1 | 57.2 µM | –
CC(C)=CCC\C(C)=C/C=C/C(C)=C\C=C\C(C)=C/C=C/C=C(C)\C=C\C=C(C)/C=C/C=C(/C)CCC=C(C)C | > 100 µM | –
CC1(C)C(=O)/C=C\C(=O)C(C)(C)C2=CC=C(O2)C(C)(C)C(=O)/C=C\C(=O)C(C)(C)C2=CC=C1O2 | > 100 µM | –
NC(=O)NO.O.O.O.O.O.O.O.O.O.O.O.[Ge].[Ge].[Ge].[Ge].[Ge].[O]=[Ge].[O]=[Ge].[O]=[Ge].[O]=[Ge].[O]=[Ge][OH] | > 100 µM | –
CN(C)C(=S)N=C(Nc1ccccc1)Nc1ccccc1 | > 100 µM | –
NC(N)=NS(=O)(=O)c1ccc(Nc2c3ccccc3nc3c(C(=O)NCCO)cccc23)cc1 | – | 21 µM
COc1cccc(C2c3cc4c(cc3OC(C)(N3CCCC3)C2C)OCO4)c1O (stereo not given) | > 56 µM | –
COC(=O)CC[N+]1=CCC(c2ccccc2)(c2ccccc2)O1 | > 100 µM | –
O=C1NC(=NCCc2cccc(F)c2)S/C1=C\c1ccc2ncccc2c1 | > 25 µM | 7.15 µM
COc1cc(/C=N\NC(=O)CN2CCN(c3cc4c(cc3F)c(=O)c(C(=O)N/N=C/c3cc(OC)c(OC)c(OC)c3)cn4C3CC3)CC2)cc(OC)c1OC | > 100 µM | 18.7 µM

test system: SF-268 CNS; test: NCI-60 cell line screen, 48 h

Compound | TGI | GI50
COc1ccc(CC2c3cc4c(cc3CCN2C)OCO4)c(C=O)c1OC (stereo not given) | > 100 µM | –
CN1CCCCC1CCN1c2ccccc2Sc2ccc(Cl)cc21 (stereo not given) | 8.85 µM | 2.99 µM
C=C(C)C(OC)C(O)CC1(C)CC(O)CC(C)(C2CCC3OC(C4(C)CCC(Br)C(C)(C)O4)CCC3(C)O2)O1 (stereo not given) | 40.3 µM | 18.9 µM
O=C(Nc1nc2ccc([N+](=O)[O-])cc2s1)C(=O)C(C1OC(=O)c2ccccc21)[N+](=O)[O-] (stereo not given) | > 100 µM | –
Cc1cc(-c2nc(C(=O)Nc3cc4oc(N5CCOCC5)nc4nc3N3CC[C@@H](O)C3)co2)ccn1 | > 100 µM | 61.7 µM
COc1cc2c(cc1OCCCCN1CCN(CC(=O)Nc3ccc(Cl)cc3C(=O)c3ccccc3Cl)CC1)N=CC1CCCN1C2=O (stereo not given) | 0.711 µM | 0.268 µM
O=C(CCc1nc(=S)[nH][nH]1)Nc1ccc(Cl)c(Cl)c1 | > 100 µM | –
COC(=O)C1(C(C)C)CCc2c(OC)ccc(OC)c2C1=O (stereo not given) | > 100 µM | –
Cc1ccc(Cl)c2c(N=Nc3ccccc3[N+](=O)[O-])c(O)[nH]c12 | > 100 µM | –
FC(F)(F)c1cccc(Nc2nc(-c3ccccc3)nc3ncccc23)c1 | 44.3 µM | 6.76 µM
O=C(Nc1ccccc1)c1c(O)[nH]c(=S)[nH]c1=O | 125 µM | –
OC1CSSC1Cn1cnc2c(Nc3ccc(OCc4cccc(F)c4)c(Cl)c3)ncnc21 (stereo not given) | 2.9 µM | 0.56 µM
C=CCOc1ccc2c(C)cc(=O)oc2c1C | > 100 µM | –
Nc1c(C(=O)c2cccc(CCS(N)(=O)=O)c2)cnn1-c1ccc(F)cc1 | > 25 µM | > 25 µM
COC(=O)c1ccccc1NC(=O)C(=O)Cc1nc2c3c(ccc2[nH]c1=O)C(=O)c1ccccc1C3=O | 67.9 µM | –
COc1cc2cc(OC)c3cc4c(cc3c2c(OC)c1OC)OCO4 | > 100 µM | –

Compound | TGI | GI50
O=C(CC(=O)c1cccc2ccccc12)C(=O)Nc1ccc(Cl)cc1 | > 100 µM | –
OCc1cc2ccccc2c2c3c(ccc12)OCO3 | 117 µM | 33.8 µM
CCCCCCCCCCCCCC(=O)OC(/C=C/C(C)C)C(O)C(O)C(OC)C(=O)NC1CCCCN(C)C1=O (stereo not given) | 8.63 µM and > 49 µM | –
CC1(C(=O)O)CCC[C@@]2(C)C1CC[C@@]1(C)c3cocc3CCC21 (stereo not given in full) | > 100 µM | –
C[C@@H](Oc1cc(-n2cnc3ccc(CN4CCN(C)CC4)cc32)sc1C(N)=O)c1ccccc1C(F)(F)F | 16.3 µM and > 10 µM | 0.0293 µM and 0.0667 µM
CCN(CC)CCSc1c2ccccc2nc2cc(NCC(=O)Nc3ccccc3-c3ccccc3NC(=O)CNc3ccc4c(SCCN(CC)CC)c5ccccc5nc4c3)ccc12 | > 100 µM | –
Cc1ccsc1C(=S)Nc1ccc(Cl)c(/C=N/OC(C)(C)C)c1 | > 100 µM | –
CC(C)=CCC\C(C)=C/C=C/C(C)=C\C=C\C(C)=C/C=C/C=C(C)\C=C\C=C(C)/C=C/C=C(/C)CCC=C(C)C | > 100 µM | –
CC1(C)C(=O)/C=C\C(=O)C(C)(C)C2=CC=C(O2)C(C)(C)C(=O)/C=C\C(=O)C(C)(C)C2=CC=C1O2 | > 100 µM | –
NC(=O)NO.O.O.O.O.O.O.O.O.O.O.O.[Ge].[Ge].[Ge].[Ge].[Ge].[O]=[Ge].[O]=[Ge].[O]=[Ge].[O]=[Ge].[O]=[Ge][OH] | > 100 µM | –
CN(C)C(=S)N=C(Nc1ccccc1)Nc1ccccc1 | > 100 µM | –
NC(N)=NS(=O)(=O)c1ccc(Nc2c3ccccc3nc3c(C(=O)NCCO)cccc23)cc1 | – | 16.3 µM
COc1cccc(C2c3cc4c(cc3OC(C)(N3CCCC3)C2C)OCO4)c1O (stereo not given) | > 72.5 µM | –
COC(=O)CC[N+]1=CCC(c2ccccc2)(c2ccccc2)O1 | > 100 µM | –
O=C1NC(=NCCc2cccc(F)c2)S/C1=C\c1ccc2ncccc2c1 | > 25 µM | 10.7 µM
COc1cc(/C=N\NC(=O)CN2CCN(c3cc4c(cc3F)c(=O)c(C(=O)N/N=C/c3cc(OC)c(OC)c(OC)c3)cn4C3CC3)CC2)cc(OC)c1OC | – | 0.292 µM

test system: OVCAR-3 ovarian; test: NCI-60 cell line screen, 48 h

Compound | TGI | GI50 [µM]
COc1ccc(CC2c3cc4c(cc3CCN2C)OCO4)c(C=O)c1OC (stereo not given) | > 100 µM | –
CN1CCCCC1CCN1c2ccccc2Sc2ccc(Cl)cc21 (stereo not given) | 14.6 µM | 4.04
C=C(C)C(OC)C(O)CC1(C)CC(O)CC(C)(C2CCC3OC(C4(C)CCC(Br)C(C)(C)O4)CCC3(C)O2)O1 (stereo not given) | 58.5 µM | 22.8
O=C(Nc1nc2ccc([N+](=O)[O-])cc2s1)C(=O)C(C1OC(=O)c2ccccc21)[N+](=O)[O-] (stereo not given) | > 100 µM | –
Cc1cc(-c2nc(C(=O)Nc3cc4oc(N5CCOCC5)nc4nc3N3CC[C@@H](O)C3)co2)ccn1 | > 100 µM | 27
COc1cc2c(cc1OCCCCN1CCN(CC(=O)Nc3ccc(Cl)cc3C(=O)c3ccccc3Cl)CC1)N=CC1CCCN1C2=O (stereo not given) | 0.435 µM | 0.197
O=C(CCc1nc(=S)[nH][nH]1)Nc1ccc(Cl)c(Cl)c1 | > 100 µM | –
COC(=O)C1(C(C)C)CCc2c(OC)ccc(OC)c2C1=O (stereo not given) | > 100 µM | –
Cc1ccc(Cl)c2c(N=Nc3ccccc3[N+](=O)[O-])c(O)[nH]c12 | > 100 µM | –
FC(F)(F)c1cccc(Nc2nc(-c3ccccc3)nc3ncccc23)c1 | 28 µM | 5.2
O=C(Nc1ccccc1)c1c(O)[nH]c(=S)[nH]c1=O | 74.8 µM and 71.3 µM | 10.9
OC1CSSC1Cn1cnc2c(Nc3ccc(OCc4cccc(F)c4)c(Cl)c3)ncnc21 (stereo not given) | 1.93 µM | 0.748
C=CCOc1ccc2c(C)cc(=O)oc2c1C | > 100 µM | –
Nc1c(C(=O)c2cccc(CCS(N)(=O)=O)c2)cnn1-c1ccc(F)cc1 | > 25 µM | > 25
COC(=O)c1ccccc1NC(=O)C(=O)Cc1nc2c3c(ccc2[nH]c1=O)C(=O)c1ccccc1C3=O | > 100 µM | –
